Literature values, collected in patent US7317127B2, “Process for the optical resolution and recycling of tomoxetine” (Teva Pharmaceutical Fine Chemicals S.r.l, priority 2004, dated 2008).

Details: as disclosed in U.S. Pat. No. 4,018,895, EP 0 052 492, EP 0 721 777

## CNCC[C@@H](Oc1ccccc1C)c1ccccc1 [Atomoxetine, (R)(−)-N-methyl-3-(2-methylphenoxy)-3-phenylpropylamine]
Versus (S)-(+)-tomoxetine
  effectiveness relative to the (+)-enantiomer: about nine times more effective than the (+)-enantiomer
Versus racemic tomoxetine
  effectiveness relative to the racemic mixture: about twice as effective as the racemic mixture
